Source: PubChem BioAssay (NCI)
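Following 48 hours of exposure in 96-well plates, responses at five concentrations were used to interpolate endpoints linearly. The concentration for 50% growth inhibition is given as GI50. The concentration for full growth arrest is given as TGI.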

How the values were obtained:
Assay in all cases: DTP human tumour cell line panel, 48 h
HS 578T breast = system: HS 578T breast
DU-145 prostate = system: DU-145 prostate
KM12 colon = system: KM12 colon
NCI-H460 lung = system: NCI-H460 lung
RXF 393 renal = system: RXF 393 renal
K-562 leukemia = system: K-562 leukemia
UACC-257 melanoma = system: UACC-257 melanoma
CAKI-1 renal = system: CAKI-1 renal
A549 NSCLC = system: A549 NSCLC
IGROV1 ovarian = system: IGROV1 ovarian
EKVX NSCLC = system: EKVX NSCLC
UO-31 renal = system: UO-31 renal
SF-295 CNS = system: SF-295 CNS
SR leukemia = system: SR leukemia
MCF7 breast = system: MCF7 breast
A498 renal = system: A498 renal
U251 CNS = system: U251 CNS
SN12C renal = system: SN12C renal
SF-268 CNS = system: SF-268 CNS
ACHN renal = system: ACHN renal
T-47D breast = system: T-47D breast
MDA-MB-435 = system: MDA-MB-435
OVCAR-3 ovarian = system: OVCAR-3 ovarian
BT-549 breast = system: BT-549 breast
RPMI-8226 leukemia = system: RPMI-8226 leukemia
SNB-19 CNS = system: SNB-19 CNS
SNB-75 CNS = system: SNB-75 CNS
TK-10 renal = system: TK-10 renal
SK-MEL-28 melanoma = system: SK-MEL-28 melanoma
LOX IMVI melanoma = system: LOX IMVI melanoma
HCC-2998 colon = system: HCC-2998 colon
HL-60(TB) leukemia = system: HL-60(TB) leukemia
HOP-92 NSCLC = system: HOP-92 NSCLC
MOLT-4 leukemia = system: MOLT-4 leukemia
CCRF-CEM leukemia = system: CCRF-CEM leukemia
HOP-62 NSCLC = system: HOP-62 NSCLC
SF-539 CNS = system: SF-539 CNS
HCT-116 colon = system: HCT-116 colon
SK-OV-3 ovarian = system: SK-OV-3 ovarian
OVCAR-8 ovarian = system: OVCAR-8 ovarian
COLO 205 colon = system: COLO 205 colon
HCT-15 colon = system: HCT-15 colon
NCI-H226 lung = system: NCI-H226 lung
NCI-H522 lung = system: NCI-H522 lung
UACC-62 melanoma = system: UACC-62 melanoma
NCI/ADR-RES ovarian = system: NCI/ADR-RES ovarian
HT29 colon = system: HT29 colon
786-0 renal = system: 786-0 renal
PC-3 prostate = system: PC-3 prostate
SW-620 colon = system: SW-620 colon
OVCAR-5 ovarian = system: OVCAR-5 ovarian
MDA-MB-231 breast = system: MDA-MB-231 breast
SK-MEL-2 melanoma = system: SK-MEL-2 melanoma
OVCAR-4 ovarian = system: OVCAR-4 ovarian
SK-MEL-5 melanoma = system: SK-MEL-5 melanoma

CN1C(=O)N(c2ccccc2)C2N=C(N/N=C/c3ccccc3)SC21 (stereo not given)
GI50 (HS 578T breast): 1.7 µM | TGI (HS 578T breast): > 100 µM | GI50 (DU-145 prostate): 3.61 µM | TGI (DU-145 prostate): > 100 µM | GI50 (KM12 colon): 0.819 µM | TGI (KM12 colon): > 100 µM | GI50 (NCI-H460 lung): 1.04 µM | TGI (NCI-H460 lung): 19.9 µM | GI50 (RXF 393 renal): 0.873 µM | TGI (RXF 393 renal): 3.16 µM | GI50 (K-562 leukemia): 0.447 µM | TGI (K-562 leukemia): > 100 µM | GI50 (UACC-257 melanoma): 28.7 µM | TGI (UACC-257 melanoma): > 100 µM | GI50 (CAKI-1 renal): 0.685 µM | TGI (CAKI-1 renal): > 100 µM | GI50 (A549 NSCLC): 2.48 µM | TGI (A549 NSCLC): > 100 µM | GI50 (IGROV1 ovarian): 3.86 µM | TGI (IGROV1 ovarian): > 100 µM | GI50 (EKVX NSCLC): 3.73 µM | TGI (EKVX NSCLC): > 100 µM | GI50 (UO-31 renal): 3.18 µM | TGI (UO-31 renal): > 100 µM | GI50 (SF-295 CNS): 0.622 µM | TGI (SF-295 CNS): > 100 µM | GI50 (SR leukemia): 0.38 µM | TGI (SR leukemia): > 100 µM | GI50 (MCF7 breast): 0.456 µM | TGI (MCF7 breast): > 100 µM | GI50 (A498 renal): > 100 µM | TGI (A498 renal): > 100 µM | GI50 (U251 CNS): 1.83 µM | TGI (U251 CNS): > 100 µM | GI50 (SN12C renal): 4.46 µM | TGI (SN12C renal): > 100 µM | GI50 (SF-268 CNS): 5.49 µM | TGI (SF-268 CNS): > 100 µM | GI50 (ACHN renal): 5.19 µM | TGI (ACHN renal): > 100 µM | GI50 (T-47D breast): 2.93 µM | TGI (T-47D breast): > 100 µM | GI50 (MDA-MB-435): 0.203 µM | TGI (MDA-MB-435): 0.508 µM | GI50 (OVCAR-3 ovarian): 0.556 µM | TGI (OVCAR-3 ovarian): > 100 µM | GI50 (BT-549 breast): 0.885 µM | TGI (BT-549 breast): 13.7 µM | GI50 (RPMI-8226 leukemia): 3.24 µM | TGI (RPMI-8226 leukemia): > 100 µM | GI50 (SNB-19 CNS): 3.77 µM | TGI (SNB-19 CNS): > 100 µM | GI50 (SNB-75 CNS): 0.363 µM | TGI (SNB-75 CNS): 7.7 µM | GI50 (TK-10 renal): > 100 µM | TGI (TK-10 renal): > 100 µM | GI50 (SK-MEL-28 melanoma): 16.8 µM | TGI (SK-MEL-28 melanoma): > 100 µM | GI50 (LOX IMVI melanoma): 0.931 µM | TGI (LOX IMVI melanoma): > 100 µM | GI50 (HCC-2998 colon): 2.25 µM | TGI (HCC-2998 colon): 53.2 µM | GI50 (HL-60(TB) leukemia): 0.452 µM | TGI (HL-60(TB) leukemia): 6.58 µM | GI50 (HOP-92 NSCLC): 0.648 µM | TGI (HOP-92 NSCLC): > 100 µM | GI50 (MOLT-4 leukemia): 2.38 µM | TGI (MOLT-4 leukemia): > 100 µM | GI50 (CCRF-CEM leukemia): 1.93 µM | TGI (CCRF-CEM leukemia): > 100 µM | GI50 (HOP-62 NSCLC): 2.5 µM | TGI (HOP-62 NSCLC): > 100 µM | GI50 (SF-539 CNS): 1.34 µM | TGI (SF-539 CNS): 7.91 µM | GI50 (HCT-116 colon): 0.71 µM | TGI (HCT-116 colon): > 100 µM | GI50 (SK-OV-3 ovarian): 2.82 µM | TGI (SK-OV-3 ovarian): > 100 µM | GI50 (OVCAR-8 ovarian): 3.56 µM | TGI (OVCAR-8 ovarian): > 100 µM | GI50 (COLO 205 colon): 1.52 µM | TGI (COLO 205 colon): 5.16 µM | GI50 (HCT-15 colon): 0.553 µM | TGI (HCT-15 colon): > 100 µM | GI50 (NCI-H226 lung): 2.28 µM | TGI (NCI-H226 lung): 66.6 µM | GI50 (NCI-H522 lung): 0.304 µM | TGI (NCI-H522 lung): 1.58 µM | GI50 (UACC-62 melanoma): 0.577 µM | TGI (UACC-62 melanoma): > 100 µM | GI50 (NCI/ADR-RES ovarian): 1.05 µM | TGI (NCI/ADR-RES ovarian): > 100 µM | GI50 (HT29 colon): 0.935 µM | TGI (HT29 colon): 8.04 µM | GI50 (786-0 renal): 4.21 µM | TGI (786-0 renal): > 100 µM | GI50 (PC-3 prostate): 1.59 µM | TGI (PC-3 prostate): > 100 µM | GI50 (SW-620 colon): 0.659 µM | TGI (SW-620 colon): > 100 µM | GI50 (OVCAR-5 ovarian): 4.22 µM | TGI (OVCAR-5 ovarian): > 100 µM | GI50 (MDA-MB-231 breast): 3.62 µM | TGI (MDA-MB-231 breast): 82.6 µM | GI50 (SK-MEL-2 melanoma): 1.1 µM | TGI (SK-MEL-2 melanoma): > 100 µM | GI50 (OVCAR-4 ovarian): 14.5 µM | TGI (OVCAR-4 ovarian): > 100 µM | GI50 (SK-MEL-5 melanoma): 6.05 µM | TGI (SK-MEL-5 melanoma): 67.5 µM
